Measured values taken from patent publication US12077503B2, “Substituted cyclic amides and their use as herbicides” (FMC CORPORATION, priority 2015, dated 2024).

Columns and labels:
Type in all cases: in vivo
[1] = tested on: ivy-leaved morning glory (Ipomoea hederacea); assay: Test G Post-Emergence Protocol; conditions: Ipomoea, post-emergence, 312 h; for pest or weed control at 15.625 g/ha: 15.625 g ai/ha, evaluated after 13 days (100=total damage to plant; 0=no damage to plant), read-out: Morningglory, Ivy-leaved damage rating; for pest or weed control at 62.5 g/ha: 62.5 g ai/ha, read-out: Morningglory, Ivy-leaved damage rating (100=total damage to plant; 0=no damage to plant); for pest or weed control at 62.5 g/ha / pest or weed control at 250 g/ha: evaluated after 13 days; for pest or weed control at 250 g/ha: 250 g ai/ha, read-out: damage to plant, Morningglory, Ivy-leaved (100=total damage to plant; 0=no damage to plant)
Method in brief: (§1)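 A glasshouse post-emergence test: 8-day-old plants sprayed at 15.625, 62.5 or 250 g/ha, then grown at 24/16 °C day/night with 14 h light and 65% humidity. Damage rated 13 days later, 0–100.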

[2] = tested on: giant foxtail (Setaria faberi); assay: Test G Post-Emergence Protocol; conditions: Setaria faberi, post-emergence, 312 h; for pest or weed control at 15.625 g/ha: 15.625 g ai/ha, evaluated after 13 days (100=total damage to plant; 0=no damage to plant), read-out: Foxtail, Giant damage rating; for pest or weed control at 62.5 g/ha: 62.5 g ai/ha, read-out: Foxtail, Giant damage rating (100=total damage to plant; 0=no damage to plant); for pest or weed control at 62.5 g/ha / pest or weed control at 250 g/ha: evaluated after 13 days; for pest or weed control at 250 g/ha: 250 g ai/ha, read-out: damage to plant, Foxtail, Giant (100=total damage to plant; 0=no damage to plant)
Method in brief: as §1

[3] = tested on: velvetleaf (Abutilon theophrasti); assay: Test G Post-Emergence Protocol; conditions: Abutilon theophrasti, post-emergence, 312 h; for pest or weed control at 15.625 g/ha: 15.625 g ai/ha, evaluated after 13 days (100=total damage to plant; 0=no damage to plant), read-out: Velvetleaf damage rating; for pest or weed control at 62.5 g/ha: 62.5 g ai/ha, read-out: Velvetleaf damage rating (100=total damage to plant; 0=no damage to plant); for pest or weed control at 62.5 g/ha / pest or weed control at 250 g/ha: evaluated after 13 days; for pest or weed control at 250 g/ha: 250 g ai/ha, read-out: damage to plant, Velvetleaf (100=total damage to plant; 0=no damage to plant)
Method in brief: as §1

[4] = tested on: corn (Zea mays); assay: Test G Post-Emergence Protocol; conditions: Zea mays, post-emergence, 312 h; for plant injury at 15.625 g/ha: 15.625 g ai/ha, evaluated after 13 days (100=total damage to plant; 0=no damage to plant), read-out: Corn damage rating; for plant injury at 62.5 g/ha: 62.5 g ai/ha, read-out: Corn damage rating (100=total damage to plant; 0=no damage to plant); for plant injury at 62.5 g/ha / plant injury at 250 g/ha: evaluated after 13 days; for plant injury at 250 g/ha: 250 g ai/ha, read-out: damage to plant, Corn (100=total damage to plant; 0=no damage to plant)
Method in brief: as §1

[5] = tested on: redroot pigweed (Amaranthus retroflexus); assay: Test G Post-Emergence Protocol; conditions: Amaranthus retroflexus, post-emergence, 312 h; for pest or weed control at 15.625 g/ha: 15.625 g ai/ha, evaluated after 13 days (100=total damage to plant; 0=no damage to plant), read-out: Pigweed, Redroot damage rating; for pest or weed control at 62.5 g/ha: 62.5 g ai/ha, read-out: Pigweed, Redroot damage rating (100=total damage to plant; 0=no damage to plant); for pest or weed control at 62.5 g/ha / pest or weed control at 250 g/ha: evaluated after 13 days; for pest or weed control at 250 g/ha: 250 g ai/ha, read-out: damage to plant, Pigweed, Redroot (100=total damage to plant; 0=no damage to plant)
Method in brief: as §1

[6] = tested on: barnyardgrass (Echinochloa crus-galli); assay: Test G Post-Emergence Protocol; conditions: Echinochloa crus-galli, post-emergence, 312 h; for pest or weed control at 15.625 g/ha: 15.625 g ai/ha, evaluated after 13 days (100=total damage to plant; 0=no damage to plant), read-out: Barnyardgrass damage rating; for pest or weed control at 62.5 g/ha: 62.5 g ai/ha, read-out: Barnyardgrass damage rating (100=total damage to plant; 0=no damage to plant); for pest or weed control at 62.5 g/ha / pest or weed control at 250 g/ha: evaluated after 13 days; for pest or weed control at 250 g/ha: 250 g ai/ha, read-out: damage to plant, Barnyardgrass (100=total damage to plant; 0=no damage to plant)
Method in brief: as §1

[7] = tested on: ivy-leaved morning glory (Ipomoea hederacea); assay: Test G Pre-Emergence Protocol; conditions: Ipomoea, pre-emergence, 312 h, evaluated after 13 days; for pest or weed control at 15.625 g/ha: 15.625 g ai/ha, read-out: Morning-glory, Ivy-leaved damage rating (100=total damage to plant; 0=no damage to plant); for pest or weed control at 62.5 g/ha: 62.5 g ai/ha, 100=total damage to plant, 0=no damage to plant, read-out: plant damage rating, Morningglory, Ivy-leaved; for pest or weed control at 250 g/ha: 250 g ai/ha, read-out: Morningglory, Ivy-leaved damage rating (100=total damage to plant; 0=no damage to plant)
Method in brief: (§2)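 Spraying took place one day after sowing, at 15.625, 62.5 or 250 g/ha, using an acetone/water (50:50) spray solution containing 0.5% Tween 20. Plants were kept under glasshouse conditions (24/16 °C, 14 h light, 65% humidity, watered twice daily), and injury was rated 0–100 at day 13.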

[8] = tested on: giant foxtail (Setaria faberi); assay: Test G Pre-Emergence Protocol; conditions: Setaria faberi, pre-emergence, 312 h, evaluated after 13 days; for pest or weed control at 15.625 g/ha: 15.625 g ai/ha; for pest or weed control at 15.625 g/ha / pest or weed control at 250 g/ha: read-out: Foxtail, Giant damage rating (100=total damage to plant; 0=no damage to plant); for pest or weed control at 62.5 g/ha: 62.5 g ai/ha, 100=total damage to plant, 0=no damage to plant, read-out: plant damage rating, Foxtail, Giant; for pest or weed control at 250 g/ha: 250 g ai/ha
Method in brief: as §2

[9] = tested on: velvetleaf (Abutilon theophrasti); assay: Test G Pre-Emergence Protocol; conditions: Abutilon theophrasti, pre-emergence, 312 h, evaluated after 13 days; for pest or weed control at 15.625 g/ha: 15.625 g ai/ha; for pest or weed control at 15.625 g/ha / pest or weed control at 250 g/ha: read-out: Velvetleaf damage rating (100=total damage to plant; 0=no damage to plant); for pest or weed control at 62.5 g/ha: 62.5 g ai/ha, 100=total damage to plant, 0=no damage to plant, read-out: plant damage rating, Velvetleaf; for pest or weed control at 250 g/ha: 250 g ai/ha
Method in brief: as §2

[10] = tested on: corn (Zea mays); assay: Test G Pre-Emergence Protocol; conditions: Zea mays, pre-emergence, 312 h, evaluated after 13 days; for plant injury at 15.625 g/ha: 15.625 g ai/ha; for plant injury at 15.625 g/ha / plant injury at 250 g/ha: read-out: Corn damage rating (100=total damage to plant; 0=no damage to plant); for plant injury at 62.5 g/ha: 62.5 g ai/ha, 100=total damage to plant, 0=no damage to plant, read-out: plant damage rating, Corn; for plant injury at 250 g/ha: 250 g ai/ha
Method in brief: as §2

[11] = tested on: redroot pigweed (Amaranthus retroflexus); assay: Test G Pre-Emergence Protocol; conditions: Amaranthus retroflexus, pre-emergence, 312 h, evaluated after 13 days; for pest or weed control at 15.625 g/ha: 15.625 g ai/ha; for pest or weed control at 15.625 g/ha / pest or weed control at 250 g/ha: read-out: Pigweed, Redroot damage rating (100=total damage to plant; 0=no damage to plant); for pest or weed control at 62.5 g/ha: 62.5 g ai/ha, 100=total damage to plant, 0=no damage to plant, read-out: plant damage rating, Pigweed, Redroot; for pest or weed control at 250 g/ha: 250 g ai/ha
Method in brief: as §2

[12] = tested on: barnyardgrass (Echinochloa crus-galli); assay: Test G Pre-Emergence Protocol; conditions: Echinochloa crus-galli, pre-emergence, 312 h, evaluated after 13 days; for pest or weed control at 15.625 g/ha: 15.625 g ai/ha, read-out: Barnyard grass damage rating (100=total damage to plant; 0=no damage to plant); for pest or weed control at 62.5 g/ha: 62.5 g ai/ha, 100=total damage to plant, 0=no damage to plant, read-out: plant damage rating, Barnyardgrass; for pest or weed control at 250 g/ha: 250 g ai/ha, read-out: Barnyardgrass damage rating (100=total damage to plant; 0=no damage to plant)
Method in brief: as §2

Row | SMILES | pest or weed control at 15.625 g/ha [1] | pest or weed control at 62.5 g/ha [1] | pest or weed control at 250 g/ha [1] | pest or weed control at 15.625 g/ha [2] | pest or weed control at 62.5 g/ha [2] | pest or weed control at 250 g/ha [2] | pest or weed control at 15.625 g/ha [3] | pest or weed control at 62.5 g/ha [3] | pest or weed control at 250 g/ha [3] | plant injury at 15.625 g/ha [4] | plant injury at 62.5 g/ha [4] | plant injury at 250 g/ha [4] | pest or weed control at 15.625 g/ha [5] | pest or weed control at 62.5 g/ha [5] | pest or weed control at 250 g/ha [5] | pest or weed control at 15.625 g/ha [6] | pest or weed control at 62.5 g/ha [6] | pest or weed control at 250 g/ha [6] | pest or weed control at 15.625 g/ha [7] | pest or weed control at 62.5 g/ha [7] | further results
1 | Cc1cc(NC(=O)[C@@H]2C(=O)N(C)C[C@H]2c2ccc(C(F)(F)F)cc2)ccn1 (racemic) [Compound 1600] | 0% | 0% | 0% | 0% | 0% | 0% | 0% | 0% | 0% | 0% | 0% | 0% | 0% | 0% | 0% | 0% | 0% | 0% | 0% | 0% | pest or weed control at 250 g/ha [7]: 0%; pest or weed control at 15.625 g/ha [8]: 0%; pest or weed control at 62.5 g/ha [8]: 0%; pest or weed control at 250 g/ha [8]: 0%; pest or weed control at 15.625 g/ha [9]: 0%; pest or weed control at 62.5 g/ha [9]: 0%; pest or weed control at 250 g/ha [9]: 0%; plant injury at 15.625 g/ha [10]: 0%; plant injury at 62.5 g/ha [10]: 0%; plant injury at 250 g/ha [10]: 0%; pest or weed control at 15.625 g/ha [11]: 0%; pest or weed control at 62.5 g/ha [11]: 0%; pest or weed control at 250 g/ha [11]: 0%; pest or weed control at 15.625 g/ha [12]: 0%; pest or weed control at 62.5 g/ha [12]: 0%; pest or weed control at 250 g/ha [12]: 0%
2 | CN1C[C@@H](c2ccc(C(F)(F)F)cc2)[C@H](C(=O)Nc2cccc(Cl)n2)C1=O (racemic) [Compound 1606] | 0% | 0% | 30% | 40% | 70% | 80% | 0% | 0% | 60% | 0% | 0% | 0% | 40% | 40% | 100% | 20% | 40% | 50% | 0% | 0% | pest or weed control at 250 g/ha [7]: 10%; pest or weed control at 15.625 g/ha [8]: 0%; pest or weed control at 62.5 g/ha [8]: 60%; pest or weed control at 250 g/ha [8]: 90%; pest or weed control at 15.625 g/ha [9]: 0%; pest or weed control at 62.5 g/ha [9]: 0%; pest or weed control at 250 g/ha [9]: 0%; plant injury at 15.625 g/ha [10]: 0%; plant injury at 62.5 g/ha [10]: 0%; plant injury at 250 g/ha [10]: 10%; pest or weed control at 15.625 g/ha [11]: 0%; pest or weed control at 62.5 g/ha [11]: 0%; pest or weed control at 250 g/ha [11]: 0%; pest or weed control at 15.625 g/ha [12]: 0%; pest or weed control at 62.5 g/ha [12]: 20%; pest or weed control at 250 g/ha [12]: 60%
